{
  "source": "paper PMC7932537",
  "about": "“Quantitative profiling of protease specificity” (PLoS Computational Biology, 2021)",
  "key": {"MMP-9": {"target": "MMP-9 (Homo sapiens, UniProt P14780)", "sequence (P14780 94-707)": "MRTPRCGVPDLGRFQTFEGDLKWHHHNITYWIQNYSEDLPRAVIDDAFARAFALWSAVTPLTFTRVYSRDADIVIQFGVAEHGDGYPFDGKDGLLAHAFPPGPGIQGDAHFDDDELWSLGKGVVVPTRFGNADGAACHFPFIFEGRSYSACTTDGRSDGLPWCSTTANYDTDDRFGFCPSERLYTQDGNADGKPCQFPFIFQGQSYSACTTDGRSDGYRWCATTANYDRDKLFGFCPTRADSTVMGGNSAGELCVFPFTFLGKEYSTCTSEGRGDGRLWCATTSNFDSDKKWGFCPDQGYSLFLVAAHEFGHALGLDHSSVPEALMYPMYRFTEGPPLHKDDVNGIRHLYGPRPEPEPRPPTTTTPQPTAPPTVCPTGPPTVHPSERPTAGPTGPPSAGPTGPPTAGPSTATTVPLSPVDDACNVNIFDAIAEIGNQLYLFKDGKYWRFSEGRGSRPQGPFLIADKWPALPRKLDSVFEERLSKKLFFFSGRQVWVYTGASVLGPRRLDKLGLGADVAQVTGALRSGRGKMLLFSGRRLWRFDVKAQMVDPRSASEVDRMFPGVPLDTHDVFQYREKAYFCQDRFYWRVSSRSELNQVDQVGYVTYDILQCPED", "experiment": "K(obs) of individual phage substrates (set of 1369)", "type": "biochemical", "conditions": "MMP9"}, "MMP-2 [1]": {"test_system": "MMP-2", "experiment": "Substrate phage display with NGS: relative probability (RP) of P3-P1' tetramer clusters;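 also: ratio of tetramer probability after protease selection to that in naive phage library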", "type": "biochemical, human", "conditions": "MMP2"}, "MMP-2 [2]": {"target": "T1, MMP-2 (Homo sapiens, UniProt P08253)", "T1 sequence (P08253 110-660)": "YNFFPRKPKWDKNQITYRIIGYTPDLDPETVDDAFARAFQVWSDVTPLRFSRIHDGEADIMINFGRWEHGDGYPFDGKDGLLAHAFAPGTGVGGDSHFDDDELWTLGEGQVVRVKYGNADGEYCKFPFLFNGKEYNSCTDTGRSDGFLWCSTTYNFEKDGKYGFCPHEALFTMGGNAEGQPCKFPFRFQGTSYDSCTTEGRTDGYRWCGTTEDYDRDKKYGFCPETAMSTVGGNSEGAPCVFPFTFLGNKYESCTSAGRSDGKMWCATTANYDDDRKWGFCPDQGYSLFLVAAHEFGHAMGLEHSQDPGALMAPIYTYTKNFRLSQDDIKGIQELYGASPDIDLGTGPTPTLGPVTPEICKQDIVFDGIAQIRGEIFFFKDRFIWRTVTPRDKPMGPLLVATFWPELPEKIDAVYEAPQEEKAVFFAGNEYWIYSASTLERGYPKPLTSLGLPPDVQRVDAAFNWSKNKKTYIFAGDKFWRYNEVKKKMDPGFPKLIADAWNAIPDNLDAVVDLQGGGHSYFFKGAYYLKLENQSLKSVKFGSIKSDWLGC", "experiment": "K(obs) of individual phage substrates (set of 1369)", "type": "biochemical", "conditions": "MMP2"}, "[3]": {"conditions": "individual phage substrates, set of 1369 peptides, hyphen in sequence marks cleavage position"}, "[4]": {"conditions": "RP of the P3-P1' tetramer contained in the substrate (substrate phage display with NGS)"}, "[5]": {"conditions": "individual phage substrates, set of 1369 peptides, cleavage position marked by hyphen in sequence"}, "[6]": {"conditions": "individual phage substrate of the set of 1369 peptides, dash in the sequence marks the cleavage position"}, "[7]": {"conditions": "RP of the P3-P1' tetramer contained in the substrate"}, "[8]": {"conditions": "individual phage substrate of the set of 1369 peptides, cleavage position marked by '-'"}},
  "data": [
    {"substance": "GEFRS-MRTAS", "values": [
      {"measurement": "Kobs", "setting": "MMP-9; [3]", "result": 0, "unit": "M⁻¹ s⁻¹"},
      {"measurement": "relative probability (RP)", "setting": "MMP-2 [1]; [4]", "result": 5.389},
      {"measurement": "Kobs", "setting": "MMP-2 [2]; [5]", "result": 1763.55, "unit": "M⁻¹ s⁻¹"}
    ]},
    {"substance": "GGSGS-LVNLL", "values": [
      {"measurement": "Kobs", "setting": "MMP-9; [3]", "result": 0, "unit": "M⁻¹ s⁻¹"},
      {"measurement": "relative probability (RP)", "setting": "MMP-2 [1]; [4]", "result": 7.225},
      {"measurement": "Kobs", "setting": "MMP-2 [2]; [5]", "result": 0, "unit": "M⁻¹ s⁻¹"}
    ]},
    {"substance": "HAPRG-STASG", "values": [
      {"measurement": "Kobs", "setting": "MMP-9; [6]", "result": 7386.83, "unit": "M⁻¹ s⁻¹"},
      {"measurement": "relative probability (RP)", "setting": "MMP-2 [1]; [7]", "result": 16.3331},
      {"measurement": "Kobs", "setting": "MMP-2 [2]; [8]", "result": 7015.91, "unit": "M⁻¹ s⁻¹"}
    ]},
    {"substance": "DAVYG-LTASG", "values": [
      {"measurement": "Kobs", "setting": "MMP-9; [6]", "result": 2615.58, "unit": "M⁻¹ s⁻¹"},
      {"measurement": "relative probability (RP)", "setting": "MMP-2 [1]; [7]", "result": 17.3788},
      {"measurement": "Kobs", "setting": "MMP-2 [2]; [8]", "result": 1925.41, "unit": "M⁻¹ s⁻¹"}
    ]},
    {"substance": "SVGLY-LTASG", "values": [
      {"measurement": "Kobs", "setting": "MMP-9; [6]", "result": 0, "unit": "M⁻¹ s⁻¹"},
      {"measurement": "relative probability (RP)", "setting": "MMP-2 [1]; [7]", "result": 0.07615},
      {"measurement": "Kobs", "setting": "MMP-2 [2]; [8]", "result": 418.952, "unit": "M⁻¹ s⁻¹"}
    ]},
    {"substance": "LLYMG-LTASG", "values": [
      {"measurement": "Kobs", "setting": "MMP-9; [3]", "result": 799.117, "unit": "M⁻¹ s⁻¹"},
      {"measurement": "relative probability (RP)", "setting": "MMP-2 [1]; [4]", "result": 0.09823},
      {"measurement": "Kobs", "setting": "MMP-2 [2]; [5]", "result": 874.197, "unit": "M⁻¹ s⁻¹"}
    ]},
    {"substance": "VHFAS-LTASG", "values": [
      {"measurement": "Kobs", "setting": "MMP-9; [6]", "result": 1030.73, "unit": "M⁻¹ s⁻¹"},
      {"measurement": "relative probability (RP)", "setting": "MMP-2 [1]; [7]", "result": 15.5827},
      {"measurement": "Kobs", "setting": "MMP-2 [2]; [8]", "result": 12792.1, "unit": "M⁻¹ s⁻¹"}
    ]},
    {"substance": "GTPSA-LTTAS", "values": [
      {"measurement": "Kobs", "setting": "MMP-9; [3]", "result": 12792.1, "unit": "M⁻¹ s⁻¹"},
      {"measurement": "relative probability (RP)", "setting": "MMP-2 [1]; [4]", "result": 36.1873},
      {"measurement": "Kobs", "setting": "MMP-2 [2]; [5]", "result": 12792.1, "unit": "M⁻¹ s⁻¹"}
    ]},
    {"substance": "VSSYW-LTASG", "values": [
      {"measurement": "Kobs", "setting": "MMP-9; [3]", "result": 1981.53, "unit": "M⁻¹ s⁻¹"},
      {"measurement": "relative probability (RP)", "setting": "MMP-2 [1]; [4]", "result": 0.9791},
      {"measurement": "Kobs", "setting": "MMP-2 [2]; [5]", "result": 951.362, "unit": "M⁻¹ s⁻¹"}
    ]},
    {"substance": "SGISY-MRITA", "values": [
      {"measurement": "Kobs", "setting": "MMP-9; [3]", "result": 0, "unit": "M⁻¹ s⁻¹"},
      {"measurement": "relative probability (RP)", "setting": "MMP-2 [1]; [4]", "result": 22.3091},
      {"measurement": "Kobs", "setting": "MMP-2 [2]; [5]", "result": 836.403, "unit": "M⁻¹ s⁻¹"}
    ]},
    {"substance": "FNPIH-LTASG", "values": [
      {"measurement": "Kobs", "setting": "MMP-9; [6]", "result": 10866.7, "unit": "M⁻¹ s⁻¹"},
      {"measurement": "relative probability (RP)", "setting": "MMP-2 [1]; [7]", "result": 26.4106},
      {"measurement": "Kobs", "setting": "MMP-2 [2]; [8]", "result": 12792.1, "unit": "M⁻¹ s⁻¹"}
    ]},
    {"substance": "QEPRN-ITASG", "values": [
      {"measurement": "Kobs", "setting": "MMP-9; [6]", "result": 12792.1, "unit": "M⁻¹ s⁻¹"},
      {"measurement": "relative probability (RP)", "setting": "MMP-2 [1]; [7]", "result": 31.9621},
      {"measurement": "Kobs", "setting": "MMP-2 [2]; [8]", "result": 12792.1, "unit": "M⁻¹ s⁻¹"}
    ]},
    {"substance": "KLGRA-LTASG", "values": [
      {"measurement": "Kobs", "setting": "MMP-9; [6]", "result": 4763.33, "unit": "M⁻¹ s⁻¹"},
      {"measurement": "relative probability (RP)", "setting": "MMP-2 [1]; [7]", "result": 7.944},
      {"measurement": "Kobs", "setting": "MMP-2 [2]; [8]", "result": 2615.58, "unit": "M⁻¹ s⁻¹"}
    ]},
    {"substance": "SGYMS-LIATA", "values": [
      {"measurement": "Kobs", "setting": "MMP-9; [3]", "result": 0, "unit": "M⁻¹ s⁻¹"},
      {"measurement": "relative probability (RP)", "setting": "MMP-2 [1]; [4]", "result": 0.07249},
      {"measurement": "Kobs", "setting": "MMP-2 [2]; [5]", "result": 386.839, "unit": "M⁻¹ s⁻¹"}
    ]},
    {"substance": "SGPVM-LRGTA", "values": [
      {"measurement": "Kobs", "setting": "MMP-9; [3]", "result": 12792.1, "unit": "M⁻¹ s⁻¹"},
      {"measurement": "relative probability (RP)", "setting": "MMP-2 [1]; [4]", "result": 25.0294},
      {"measurement": "Kobs", "setting": "MMP-2 [2]; [5]", "result": 12792.1, "unit": "M⁻¹ s⁻¹"}
    ]},
    {"substance": "SIAFA-LTASG", "values": [
      {"measurement": "Kobs", "setting": "MMP-9; [3]", "result": 12792.1, "unit": "M⁻¹ s⁻¹"},
      {"measurement": "relative probability (RP)", "setting": "MMP-2 [1]; [4]", "result": 17.8812},
      {"measurement": "Kobs", "setting": "MMP-2 [2]; [5]", "result": 12792.1, "unit": "M⁻¹ s⁻¹"}
    ]},
    {"substance": "PQVWY-LTASG", "values": [
      {"measurement": "Kobs", "setting": "MMP-9; [3]", "result": 5889.62, "unit": "M⁻¹ s⁻¹"},
      {"measurement": "relative probability (RP)", "setting": "MMP-2 [1]; [4]", "result": 3.667},
      {"measurement": "Kobs", "setting": "MMP-2 [2]; [5]", "result": 4205.91, "unit": "M⁻¹ s⁻¹"}
    ]},
    {"substance": "NKVYA-WTASG", "values": [
      {"measurement": "Kobs", "setting": "MMP-9; [3]", "result": 1711.63, "unit": "M⁻¹ s⁻¹"},
      {"measurement": "relative probability (RP)", "setting": "MMP-2 [1]; [4]", "result": 0.6193},
      {"measurement": "Kobs", "setting": "MMP-2 [2]; [5]", "result": 799.117, "unit": "M⁻¹ s⁻¹"}
    ]},
    {"substance": "RTGLY-LTASG", "values": [
      {"measurement": "Kobs", "setting": "MMP-9; [6]", "result": 0, "unit": "M⁻¹ s⁻¹"},
      {"measurement": "relative probability (RP)", "setting": "MMP-2 [1]; [7]", "result": 0.07615},
      {"measurement": "Kobs", "setting": "MMP-2 [2]; [8]", "result": 1283.43, "unit": "M⁻¹ s⁻¹"}
    ]},
    {"substance": "GEVFS-LTASG", "values": [
      {"measurement": "Kobs", "setting": "MMP-9; [6]", "result": 951.362, "unit": "M⁻¹ s⁻¹"},
      {"measurement": "relative probability (RP)", "setting": "MMP-2 [1]; [7]", "result": 9.631},
      {"measurement": "Kobs", "setting": "MMP-2 [2]; [8]", "result": 585.336, "unit": "M⁻¹ s⁻¹"}
    ]},
    {"substance": "WHPVS-LTASG", "values": [
      {"measurement": "Kobs", "setting": "MMP-9; [6]", "result": 12792.1, "unit": "M⁻¹ s⁻¹"},
      {"measurement": "relative probability (RP)", "setting": "MMP-2 [1]; [7]", "result": 32.502},
      {"measurement": "Kobs", "setting": "MMP-2 [2]; [8]", "result": 12792.1, "unit": "M⁻¹ s⁻¹"}
    ]},
    {"substance": "GYPWA-WRTAS", "values": [
      {"measurement": "Kobs", "setting": "MMP-9; [6]", "result": 4922.1, "unit": "M⁻¹ s⁻¹"},
      {"measurement": "relative probability (RP)", "setting": "MMP-2 [1]; [7]", "result": 10.3227},
      {"measurement": "Kobs", "setting": "MMP-2 [2]; [8]", "result": 1327.88, "unit": "M⁻¹ s⁻¹"}
    ]},
    {"substance": "SGPFR-LNWTA", "values": [
      {"measurement": "Kobs", "setting": "MMP-9; [3]", "result": 1373.05, "unit": "M⁻¹ s⁻¹"},
      {"measurement": "relative probability (RP)", "setting": "MMP-2 [1]; [4]", "result": 16.3818},
      {"measurement": "Kobs", "setting": "MMP-2 [2]; [5]", "result": 0, "unit": "M⁻¹ s⁻¹"}
    ]},
    {"substance": "TFPFM-LTASG", "values": [
      {"measurement": "Kobs", "setting": "MMP-9; [6]", "result": 12792.1, "unit": "M⁻¹ s⁻¹"},
      {"measurement": "relative probability (RP)", "setting": "MMP-2 [1]; [7]", "result": 19.624},
      {"measurement": "Kobs", "setting": "MMP-2 [2]; [8]", "result": 1981.53, "unit": "M⁻¹ s⁻¹"}
    ]}
  ]
}
